Assay results from ChEMBL document CHEMBL3885881, “DrugMatrix”.

Species: Rattus norvegicus
Test: DrugMatrix - Regimen: Daily Repeat
Assay type: toxicity, organism-based, Sprague-Dawley
Set-up: regimen Daily Repeat, gender Male, age 6-8 weeks
Details: in vivo, po, route oral GAVAGE, vehicle 100 % WATER; for ABSOLUTE BASOPHIL / ABSOLUTE EOSINOPHIL / ABSOLUTE LYMPHOCYTE / ABSOLUTE MONOCYTE / ABSOLUTE SEGMENTED NEUTROPHIL / BASOPHIL / EOSINOPHIL / ERYTHROCYTE COUNT / HEMATOCRIT / HEMOGLOBIN / LEUKOCYTE COUNT / LYMPHOCYTE / MEAN CORPUSCULAR HEMOGLOBIN / MEAN CORPUSCULAR HEMOGLOBIN CONCENTRATION / MEAN CORPUSCULAR VOLUME / MONOCYTE / NEUTROPHIL / NUCLEATED RED BLOOD CELLS / PLATELET COUNT: tissue Blood; for ALANINE AMINOTRANSFERASE / ALBUMIN / ALKALINE PHOSPHATASE / ASPARTATE AMINOTRANSFERASE / BLOOD UREA NITROGEN / CARBON DIOXIDE / CHLORIDE / CHOLESTEROL / CREATINE PHOSPHOKINASE / CREATININE / GLUCOSE / LACTATE DEHYDROGENASE / LIPASE / PHOSPHORUS / POTASSIUM / SODIUM / TOTAL BILIRUBIN / TOTAL PROTEIN / URIC ACID: tissue Plasma
[1] = 0 mg/kg, 72 h, dose level Control, time 3 day
[2] = 0 mg/kg, 120 h, dose level Control, time 5 day
[3] = 30 mg/kg, 72 h, dose level Low, time 3 day

With `CC(C)NCC(O)c1ccc(NS(C)(=O)=O)cc1` (centres undefined) [SOTALOL] the “ABSOLUTE BASOPHIL” value [1] was 0 CELLS/uL, the “ABSOLUTE EOSINOPHIL” value [1] was 102 CELLS/uL and the “ABSOLUTE LYMPHOCYTE” value [1] was 12758 CELLS/uL. The “ABSOLUTE MONOCYTE” value [1] was 197.17 CELLS/uL, the “ABSOLUTE SEGMENTED NEUTROPHIL” value [1] was 1259.5 CELLS/uL and the BASOPHIL [1] was 0%. For the same compound, the EOSINOPHIL [1] was 0.83%, the “ERYTHROCYTE COUNT” value [1] was 5.3 x10E6/uL and the HEMATOCRIT [1] was 33.47%. The HEMOGLOBIN [1] was 13.12 G/DL, the “LEUKOCYTE COUNT” value [1] was 14.32 x10E3/uL and the LYMPHOCYTE [1] was 89.33%. The “MEAN CORPUSCULAR HEMOGLOBIN” value [1] was 24.8 pg, the “MEAN CORPUSCULAR HEMOGLOBIN CONCENTRATION” value [1] was 39.18 G/DL and the “MEAN CORPUSCULAR VOLUME” value [1] was 63.25 fL. For the same compound, the MONOCYTE [1] was 1.33%, the NEUTROPHIL [1] was 8.5% and the “NUCLEATED RED BLOOD CELLS” value [1] was 0 /100WBC. The “PLATELET COUNT” value [1] was 1313.17 x10E3/uL, the “ALANINE AMINOTRANSFERASE” value [1] was 52.67 u/L and the ALBUMIN [1] was 4.05 G/DL. The “ALKALINE PHOSPHATASE” value [1] was 372 u/L, the “ASPARTATE AMINOTRANSFERASE” value [1] was 82.83 u/L and the “BLOOD UREA NITROGEN” value [1] was 15 mg/dL. For the same compound, the “CARBON DIOXIDE” value [1] was 25.67 mmol/L, the CHLORIDE [1] was 102.17 MEQ/L and the CHOLESTEROL [1] was 68.83 mg/dL. For the same compound, the “CREATINE PHOSPHOKINASE” value [1] was 285 u/L, the CREATININE [1] was 0.18 mg/dL and the GLUCOSE [1] was 149.17 mg/dL. The “LACTATE DEHYDROGENASE” value [1] was 263.83 u/L, the LIPASE [1] was 10.17 u/L and the PHOSPHORUS [1] was 12.58 mg/dL. For the same compound, the POTASSIUM [1] was 6.58 MEQ/L, the SODIUM [1] was 144.22 MEQ/L and the “TOTAL BILIRUBIN” value [1] was 0.22 mg/dL. For the same compound, the “TOTAL PROTEIN” value [1] was 5.83 G/DL, the “URIC ACID” value [1] was 1.58 mg/dL and the “ABSOLUTE BASOPHIL” value [2] was 0 CELLS/uL. For the same compound, the “ABSOLUTE EOSINOPHIL” value [2] was 24 CELLS/uL, the “ABSOLUTE LYMPHOCYTE” value [2] was 11134.17 CELLS/uL and the “ABSOLUTE MONOCYTE” value [2] was 56.33 CELLS/uL. For the same compound, the “ABSOLUTE SEGMENTED NEUTROPHIL” value [2] was 1235.5 CELLS/uL, the BASOPHIL [2] was 0% and the EOSINOPHIL [2] was 0.17%. The “ERYTHROCYTE COUNT” value [2] was 5.68 x10E6/uL, the HEMATOCRIT [2] was 35.72% and the HEMOGLOBIN [2] was 13.93 G/DL. For the same compound, the “LEUKOCYTE COUNT” value [2] was 12.45 x10E3/uL, the LYMPHOCYTE [2] was 89.5% and the “MEAN CORPUSCULAR HEMOGLOBIN” value [2] was 24.63 pg. The “MEAN CORPUSCULAR HEMOGLOBIN CONCENTRATION” value [2] was 39.13 G/DL, the “MEAN CORPUSCULAR VOLUME” value [2] was 62.97 fL and the MONOCYTE [2] was 0.5%. The NEUTROPHIL [2] was 9.83%, the “NUCLEATED RED BLOOD CELLS” value [2] was 0 /100WBC and the “PLATELET COUNT” value [2] was 1204 x10E3/uL. For the same compound, the “ALANINE AMINOTRANSFERASE” value [2] was 59.5 u/L, the ALBUMIN [2] was 4.38 G/DL and the “ALKALINE PHOSPHATASE” value [2] was 415.67 u/L. The “ASPARTATE AMINOTRANSFERASE” value [2] was 91.33 u/L, the “BLOOD UREA NITROGEN” value [2] was 17 mg/dL and the “CARBON DIOXIDE” value [2] was 26.33 mmol/L. The CHLORIDE [2] was 104.17 MEQ/L, the CHOLESTEROL [2] was 77 mg/dL and the “CREATINE PHOSPHOKINASE” value [2] was 249.67 u/L. For the same compound, the CREATININE [2] was 0.21 mg/dL, the GLUCOSE [2] was 148.33 mg/dL and the “LACTATE DEHYDROGENASE” value [2] was 168.5 u/L. For the same compound, the LIPASE [2] was 10.17 u/L, the PHOSPHORUS [2] was 12.92 mg/dL and the POTASSIUM [2] was 7.09 MEQ/L. The SODIUM [2] was 148.37 MEQ/L, the “TOTAL BILIRUBIN” value [2] was 0.23 mg/dL and the “TOTAL PROTEIN” value [2] was 6.3 G/DL. The “URIC ACID” value [2] was 1.77 mg/dL, the “ABSOLUTE BASOPHIL” value [3] was 0 CELLS/uL and the “ABSOLUTE EOSINOPHIL” value [3] was 90.67 CELLS/uL. The “ABSOLUTE LYMPHOCYTE” value [3] was 14675.33 CELLS/uL, the “ABSOLUTE MONOCYTE” value [3] was 254 CELLS/uL and the “ABSOLUTE SEGMENTED NEUTROPHIL” value [3] was 1113.33 CELLS/uL. The BASOPHIL [3] was 0%, the EOSINOPHIL [3] was 0.67% and the “ERYTHROCYTE COUNT” value [3] was 5.44 x10E6/uL. For the same compound, the HEMATOCRIT [3] was 34.57%, the HEMOGLOBIN [3] was 13.43 G/DL and the “LEUKOCYTE COUNT” value [3] was 16.13 x10E3/uL. For the same compound, the LYMPHOCYTE [3] was 91%, the “MEAN CORPUSCULAR HEMOGLOBIN” value [3] was 24.7 pg and the “MEAN CORPUSCULAR HEMOGLOBIN CONCENTRATION” value [3] was 38.93 G/DL. The “MEAN CORPUSCULAR VOLUME” value [3] was 63.47 fL, the MONOCYTE [3] was 1.67% and the NEUTROPHIL [3] was 6.67%. For the same compound, the “NUCLEATED RED BLOOD CELLS” value [3] was 0.67 /100WBC, the “PLATELET COUNT” value [3] was 1241 x10E3/uL and the “ALANINE AMINOTRANSFERASE” value [3] was 52.67 u/L. The ALBUMIN [3] was 4.13 G/DL, the “ALKALINE PHOSPHATASE” value [3] was 380.33 u/L and the “ASPARTATE AMINOTRANSFERASE” value [3] was 95.67 u/L. For the same compound, the “BLOOD UREA NITROGEN” value [3] was 15 mg/dL, the “CARBON DIOXIDE” value [3] was 25.67 mmol/L and the CHLORIDE [3] was 102 MEQ/L. The CHOLESTEROL [3] was 74 mg/dL, the “CREATINE PHOSPHOKINASE” value [3] was 490.33 u/L and the CREATININE [3] was 0.16 mg/dL. For the same compound, the GLUCOSE [3] was 152.33 mg/dL, the “LACTATE DEHYDROGENASE” value [3] was 497 u/L and the LIPASE [3] was 10.33 u/L. The PHOSPHORUS [3] was 13.97 mg/dL, the POTASSIUM [3] was 6.87 MEQ/L and the SODIUM [3] was 144.53 MEQ/L. The “TOTAL BILIRUBIN” value [3] was 0.23 mg/dL, the “TOTAL PROTEIN” value [3] was 5.8 G/DL and the “URIC ACID” value [3] was 2.13 mg/dL.
